Test results from patent publication US10100064B2, “Purine inhibitors of human phosphatidylinositol 3-kinase delta” (Merck Sharp & Dohme Corp., priority 2014, dated 2018).

Legend:
PI3Kalpha = target: T1, PI3Kalpha (Homo sapiens, UniProt P42336); assay: HTRF PI3K biochemical assay, alpha isoform (selectivity versus delta); conditions: relative ratio PI3K-alpha IC50 value / PI3K-delta IC50 value
T1 construct: purchased Upstate; Millipore 14-602
Source text: (§1) HTRF PI3K Biochemical Assay to Measure Intrinsic Potency of Compound Inhibitors
(§2) The PI3-Kinase biochemical assays were developed to measure the intrinsic potency and compound dependent inhibition of the alpha, beta, delta, and gamma PI3K isoform enzymes. This assay was developed and further optimized from a kit produced by Upstate (Millipore catalog #33-047) and has been configured for HTS and SAR screening. Briefly, this procedure exploits the exquisite specificity and high affinity binding of […] phosphatidyl(3,4,5)triphosphate (PIP3) to the GRP1 pleckstrin homology (PH) domain to generate the signal. In the absence of PIP3, an HTRF (Homogeneous Time-Resolved Fluorescence energy transfer) complex is formed consisting of europium (Eu)-labeled anti-GST, GSTtagged GRP1-PH domain, biotin-PIP3 and streptavidin conjugated APC. The native PIP3 produced by PI3-Kinase activity disrupts in a competitive manner the biotin-PIP3 from the PH domain, resulting in the loss of energy transfer (HTRF complex) and a decrease in the signal. The format of this assay is the same for all 4 isoforms of PI3K; the differences lie in the concentration of enzyme used to achieve robust assay window. The alpha, beta, and delta assays are run at 0.5, 1, and 0.3 nM enzymes and the gamma assay is run at 5 nM enzyme. The ATP concentration is 100 uM in the alpha, beta, and delta assays and 50 uM ATP in the gamma assay. All reactions are run at 5 uM PIP2.
(§3) Compounds are serially diluted (3-fold in 100% DMSO) across a 384-well polypropylene source plated from column 3 to column 12 and column 13 to column 22, to yield 10 concentration dose response for each test compound. Columns 1, 2, 23 and 24 contain either only DMSO or pharmacological known control inhibitor. Once titrations are made, 2.5 nL of the compounds on 384 well plates are reformatted and transferred by acoustic dispense in quadruplicates to a 1536 assay plate (Greiner) to assay across all four PI3K isoform enzymes.
(§4) The PI3-Kinase biochemical assay was optimized using the HTRF kit provided by Upstate (Millipore). The assay kit contains six reagents: 1) 4× Reaction Buffer; 2) native PIP2 (substrate); 3) Stop (EDTA); 4) Detection Mix A (Streptavidin-APC); 5) Detection Mix B (Eu-labeled Anti-GST plus GST-tagged PH-domain); 6) Detection Mix C. In addition, the following items were obtained or purchased; PI3Kinase (alpha 14-602, beta 14-603, gamma 14-558 and delta 14-604 from Upstate; Millipore), dithiothreitol (Sigma, D-5545), Adenosine-5′ triphosphate (InVitrogen, Cat#AS001A), native PIP3 (PI(3,4,5)P3, diC8, H^+, CELLSIGNALS, INC. Cat #907) DMSO (Sigma, 472301).
(§5) PI3Kinase Reaction Buffer is prepared by dilution the stock 1:4 with de-ionized water. DTT, PIP2 and Biotin-PIP3 were added to 1536 assay plate at a final concentration of 5 mM, […] 25 nM on the day of use. Enzyme addition and compound pre-incubation are initiated by the addition of 1.25 ul of PI3K (at twice its final concentration) in the 1× reaction buffer to all wells using a BioRaptor. Plates are incubated at room temperature for 15 minutes. Reactions are initiated by addition of 1.25 ul of 2× substrate solution (PIP2 and ATP in 1× reaction buffer) using BioRaptor. Plates are incubated in humidified chamber at room temperature for one hour. Reactions are quenched by addition of 0.625 uL of stop solution to all wells using the BioRaptor. The quenched reactions are then processed to detect product formation by adding 0.625 uL of Detection Solution to all wells using the BioRaptor (Detection mix C, Detection Mix A, and Detection Mix B combined together in an 18:1:1 ratio prepared 2 hours prior to use). Following a one hour incubation in the dark, the HTRF signal is measured on the Envision plate reader set for 330 nm excitation and dual emission detection at […]. […]

PI3Kdelta = target: T2, PI3Kdelta (Homo sapiens, UniProt O00329); assay: HTRF PI3K biochemical assay, delta isoform; conditions: 0.3 nM enzyme, 100 uM ATP, 5 uM PIP2, form screened (Neutral or TFA salt) given per compound
T2 construct: purchased Upstate; Millipore 14-604
T2 sequence (O00329 whole entry, canonical isoform): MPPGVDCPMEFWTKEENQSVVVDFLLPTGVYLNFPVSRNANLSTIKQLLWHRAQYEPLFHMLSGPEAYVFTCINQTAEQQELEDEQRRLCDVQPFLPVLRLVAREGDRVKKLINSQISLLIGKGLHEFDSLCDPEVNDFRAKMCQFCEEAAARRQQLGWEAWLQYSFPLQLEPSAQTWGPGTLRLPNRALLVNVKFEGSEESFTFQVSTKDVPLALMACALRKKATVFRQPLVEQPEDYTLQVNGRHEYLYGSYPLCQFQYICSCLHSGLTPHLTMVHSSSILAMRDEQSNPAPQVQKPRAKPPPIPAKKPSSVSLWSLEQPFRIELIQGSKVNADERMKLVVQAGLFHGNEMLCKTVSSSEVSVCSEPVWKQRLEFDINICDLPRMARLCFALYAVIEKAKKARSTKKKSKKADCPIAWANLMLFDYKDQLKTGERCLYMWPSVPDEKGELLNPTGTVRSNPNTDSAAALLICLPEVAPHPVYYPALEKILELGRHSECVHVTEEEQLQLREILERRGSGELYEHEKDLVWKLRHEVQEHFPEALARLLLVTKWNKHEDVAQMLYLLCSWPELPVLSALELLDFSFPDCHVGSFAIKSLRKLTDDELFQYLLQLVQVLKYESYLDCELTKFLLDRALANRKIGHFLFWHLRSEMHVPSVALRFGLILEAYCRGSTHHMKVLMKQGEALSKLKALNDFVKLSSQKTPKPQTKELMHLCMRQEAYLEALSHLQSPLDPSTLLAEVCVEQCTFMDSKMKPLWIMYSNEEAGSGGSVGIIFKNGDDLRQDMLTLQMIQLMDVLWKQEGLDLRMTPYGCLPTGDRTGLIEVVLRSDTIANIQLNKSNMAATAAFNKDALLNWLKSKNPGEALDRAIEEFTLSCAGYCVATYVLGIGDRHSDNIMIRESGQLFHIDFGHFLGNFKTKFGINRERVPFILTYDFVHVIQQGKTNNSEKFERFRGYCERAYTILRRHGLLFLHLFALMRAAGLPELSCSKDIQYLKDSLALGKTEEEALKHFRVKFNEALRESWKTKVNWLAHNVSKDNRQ
T2 sequence (P27986 whole entry partner, canonical isoform): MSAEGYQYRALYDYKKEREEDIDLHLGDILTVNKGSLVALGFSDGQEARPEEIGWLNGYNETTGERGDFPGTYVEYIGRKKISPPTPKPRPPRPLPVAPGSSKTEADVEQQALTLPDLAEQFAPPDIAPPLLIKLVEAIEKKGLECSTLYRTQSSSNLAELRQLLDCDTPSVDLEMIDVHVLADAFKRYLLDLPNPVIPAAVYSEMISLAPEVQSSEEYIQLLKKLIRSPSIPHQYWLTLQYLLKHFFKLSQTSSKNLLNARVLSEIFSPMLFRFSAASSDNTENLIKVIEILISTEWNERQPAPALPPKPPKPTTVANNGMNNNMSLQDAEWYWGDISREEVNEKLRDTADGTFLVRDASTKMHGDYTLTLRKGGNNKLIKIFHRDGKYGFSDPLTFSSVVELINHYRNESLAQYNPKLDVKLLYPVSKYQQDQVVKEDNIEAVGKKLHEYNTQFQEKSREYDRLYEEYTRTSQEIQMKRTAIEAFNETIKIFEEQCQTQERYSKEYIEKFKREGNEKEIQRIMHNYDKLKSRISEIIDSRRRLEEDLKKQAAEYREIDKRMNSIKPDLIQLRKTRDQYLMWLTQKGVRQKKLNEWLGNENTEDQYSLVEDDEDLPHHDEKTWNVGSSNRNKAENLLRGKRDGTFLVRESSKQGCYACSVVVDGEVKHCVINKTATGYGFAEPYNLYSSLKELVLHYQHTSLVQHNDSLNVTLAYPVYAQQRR
Source text: as §1, §2, §3, §4, §5

T1 sequence (P42336 whole entry, canonical isoform): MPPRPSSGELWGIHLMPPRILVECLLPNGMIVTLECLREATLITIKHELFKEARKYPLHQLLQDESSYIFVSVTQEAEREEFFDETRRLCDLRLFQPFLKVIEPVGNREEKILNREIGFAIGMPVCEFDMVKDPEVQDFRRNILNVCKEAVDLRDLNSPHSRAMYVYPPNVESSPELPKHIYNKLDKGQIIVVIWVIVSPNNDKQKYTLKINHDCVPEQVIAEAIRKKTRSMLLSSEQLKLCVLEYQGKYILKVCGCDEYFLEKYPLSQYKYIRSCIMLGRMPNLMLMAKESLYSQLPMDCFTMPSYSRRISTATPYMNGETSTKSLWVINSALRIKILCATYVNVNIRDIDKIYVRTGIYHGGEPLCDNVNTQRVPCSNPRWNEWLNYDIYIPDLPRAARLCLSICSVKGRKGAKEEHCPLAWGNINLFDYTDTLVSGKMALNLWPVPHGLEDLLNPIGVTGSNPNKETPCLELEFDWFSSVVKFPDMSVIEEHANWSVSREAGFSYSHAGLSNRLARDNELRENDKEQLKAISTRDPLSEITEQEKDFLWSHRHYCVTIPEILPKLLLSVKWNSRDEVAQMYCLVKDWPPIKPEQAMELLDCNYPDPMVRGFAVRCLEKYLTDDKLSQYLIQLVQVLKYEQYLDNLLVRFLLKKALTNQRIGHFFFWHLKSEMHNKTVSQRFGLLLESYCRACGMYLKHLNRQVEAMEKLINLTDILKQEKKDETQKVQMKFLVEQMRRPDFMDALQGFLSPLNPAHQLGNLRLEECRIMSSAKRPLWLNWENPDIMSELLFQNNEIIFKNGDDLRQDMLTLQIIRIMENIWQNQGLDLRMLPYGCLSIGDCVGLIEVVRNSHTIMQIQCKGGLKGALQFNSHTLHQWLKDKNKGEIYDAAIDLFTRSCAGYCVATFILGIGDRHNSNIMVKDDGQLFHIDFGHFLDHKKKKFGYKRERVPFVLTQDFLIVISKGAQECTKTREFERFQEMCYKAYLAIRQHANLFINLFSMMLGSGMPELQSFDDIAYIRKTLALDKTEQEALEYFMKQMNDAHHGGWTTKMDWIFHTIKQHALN
T1 sequence (P27986 whole entry partner, canonical isoform): as the sequence (P27986 whole entry partner, canonical isoform) above

Row | SMILES | Selectivity versus PI3Kalpha (PI3Kalpha) | IC50 (PI3Kdelta) [nM]
1 | CCn1c(-c2cnc(C)nc2)nc2c(NC3CCc4c(c(C(C)C)nn4C(=O)OC(C)C)C3)ncnc21 (racemic) [Compound 2-18, (S and R)-1-methylethyl 5-{[9-ethyl-8-(2-methylpyrimidin-5-yl)-9H-purin-6-yl]amino}-3-(1-methylethyl)-4,5,6,7-tetrahydro-1H-indazole-1-carboxylate] | >10 | < 1
2 | CCn1c(-c2cnc(C)nc2)nc2c(NC3CCc4c(c(C(C)C)nn4C(=O)OC(C)(C)C(F)(F)F)C3)ncnc21 (racemic) [Compound 2-20, (S and R)-2,2,2-trifluoro-1,1-dimethylethyl 5-{[9-ethyl-8-(2-methylpyrimidin-5-yl)-9H-purin-6-yl]amino}-3-(1-methylethyl)-4,5,6,7-tetrahydro-1H-indazole-1-carboxylate] | >10 | 2.6
3 | CCn1c(-c2cnc(C)nc2)nc2c(NC3CCc4c(c(C(C)C)nn4C(=O)NC(C)(C)C)C3)ncnc21 (racemic) [Compound 2-21, (S and R)-N-tert-butyl-5-{[9-ethyl-8-(2-methylpyrimidin-5-yl)-9H-purin-6-yl]amino}-3-(1-methylethyl)-4,5,6,7-tetrahydro-1H-indazole-1-carboxamide] | >10 | 16
4 | CCn1c(-c2cnc(C)nc2)nc2c(NC3CCc4c(c(C(C)C)nn4-c4ccccn4)C3)ncnc21 (racemic) [Compound 2-22, (S and R)-9-ethyl-N-[3-(1-methylethyl)-1-pyridin-2-yl-4,5,6,7-tetrahydro-1H-indazol-5-yl]-8-(2-methylpyrimidin-5-yl)-9H-purin-6-amine] | >10 | 11
5 | CCn1c(-c2cnc(C)nc2)nc2c(NC3CCc4c(c(C(C)C)nn4S(C)(=O)=O)C3)ncnc21 (racemic) [Compound 2-23, (S and R)-9-ethyl-N-[3-(1-methylethyl)-1-(methylsulfonyl)-4,5,6,7-tetrahydro-1H-indazol-5-yl]-8-(2-methylpyrimidin-5-yl)-9H-purin-6-amine] | >10 | < 1
6 | CCn1c(-c2cnc(C)nc2)nc2c(NC3Cc4cnn(Cc5ccccc5)c4C3)ncnc21 (racemic) [Compound 2-26, (S and R)-N-(1-benzyl-1,4,5,6-tetrahydrocyclopenta[c]pyrazol-5-yl)-9-ethyl-8-(2-methylpyrimidin-5-yl)-9H-purin-6-amine] | >10 | 6.1
7 | CCc1nn(CC)c2c1CC(Oc1ncnc3c1nc(-c1cnc(C)nc1)n3CC)CC2 (racemic) [Compound 2-27, (S and R)-6-[(1,3-diethyl-4,5,6,7-tetrahydro-1H-indazol-5-yl)oxy]-9-ethyl-8-(2-methylpyrimidin-5-yl)-9H-purine] | >10 | 25
8 | CCc1cnc2n1CC(Oc1ncnc3c1nc(-c1cnc(C)nc1)n3CC)C2 (racemic) [Compound 4-5, (S and R)-9-ethyl-6-[(3-ethyl-6,7-dihydro-5H-pyrrolo[1,2-a]imidazol-6-yl)oxy]-8-(2-methylpyrimidin-5-yl)-9H-purine] | >10 | 550
9 | CCn1c(-c2cnc(C)nc2)nc2c(NC3CCc4nc(Cl)n(C5CC5)c4C3)ncnc21 (racemic) [Compound 5-12, (S and R)-N-(2-chloro-1-cyclopropyl-4,5,6,7-tetrahydro-1H-benzimidazol-6-yl)-9-ethyl-8-(2-methylpyrimidin-5-yl)-9H-purin-6-amine] | >10 | < 1
10 | CCn1c(-c2cnc(C)nc2)nc2c(NC3CCc4nnc(C5CC5)n4C3)ncnc21 (single isomer, unassigned) [Compound 1-1, (S or R)-N-(3-cyclopropyl-5,6,7,8-tetrahydro[1,2,4]triazolo[4,3-a]pyridin-6-yl)-9-ethyl-8-(2-methylpyrimidin-5-yl)-9H-purin-6-amine] | >10 | 4.2
11 | CCn1c(-c2cnc(C)nc2)nc2c(NC3CCc4nnc(C5CC5)n4C3)ncnc21 (single isomer, unassigned) [Compound 1-2, (S or R)-N-(3-cyclopropyl-5,6,7,8-tetrahydro[1,2,4]triazolo[4,3-a]pyridin-6-yl)-9-ethyl-8-(2-methylpyrimidin-5-yl)-9H-purin-6-amine] | >10 | 65
12 | CCn1c(-c2cnc(C)nc2)nc2c(NC3CCc4nnc(-c5ccccc5)n4C3)ncnc21 (single isomer, unassigned) [Compound 1-3, (S or R)-9-ethyl-8-(2-methylpyrimidin-5-yl)-N-[3-phenyl-5,6,7,8-tetrahydro[1,2,4]triazolo[4,3-a]pyridin-6-yl]-9H-purin-6-amine] | >10 | 5.9
13 | CCn1c(-c2cnc(C)nc2)nc2c(NC3CCc4nnc(C(C)C)n4C3)ncnc21 (single isomer, unassigned) [Compound 1-4, (S or R)-9-ethyl-N-[3-(1-methylethyl)-5,6,7.8-tetrahydro[1,2,4]triazolo[4,3-a]pyridin-6-yl]-8-(2-methylpyrimidin-5-yl)-9H-purin-6-amine] | >10 | 46
14 | CCn1c(-c2cnc(C)nc2)nc2c(NC3CCc4nnc(C(C)C)n4C3)ncnc21 (single isomer, unassigned) [Compound 1-5, (S or R)-9-ethyl-N-[3-(1-methylethyl)-5,6,7,8-tetrahydro[1,2,4]triazolo[4,3-a]pyridin-6-yl]-8-(2-methylpyrimidin-5-yl)-9H-purin-6-amine] | >10 | 1.1
15 | CCc1nnc2n1CC(Nc1ncnc3c1nc(-c1cnc(C)nc1)n3CC)CC2 (single isomer, unassigned) [Compound 1-6, (S or R)-9-ethyl-N-[3-ethyl-5,6,7,8-tetrahydro[1,2,4]triazolo[4,3-a]pyridin-6-yl]-8-(2-methylpyrimidin-5-yl)-9H-purin-6-amine] | >10 | 2
16 | CCc1nnc2n1CC(Nc1ncnc3c1nc(-c1cnc(C)nc1)n3CC)CC2 (single isomer, unassigned) [Compound 1-7, (S or R)-9-ethyl-N-[3-ethyl-5,6,7,8-tctrahydro[1,2,4]triazolo[4,3-a]pyridin-6-yl]-8-(2-methylpyrimidin-5-yl)-9H-purin-6-amine] | >10 | 13
17 | CCn1c(C(F)F)nc2c(NC3CCc4nnc(C(C)C)n4C3)ncnc21 (single isomer, unassigned) [Compound 1-8, (S or R)-8-(difluoromethyl)-9-ethyl-N-[3-(1-methylethyl)-5,6,7,8-tetrahydro[1,2,4]triazolo[4,3-a]pyridin-6-yl]-9H-purin-6-amine] | >10 | 460
18 | CCn1c(C(F)F)nc2c(NC3CCc4nnc(C(C)C)n4C3)ncnc21 (single isomer, unassigned) [Compound 1-9, (S or R)-8-(difluoromethyl)-9-ethyl-N-[3-(1-methylethyl)-5,6,7,8-tetrahydro[1,2,4]triazolo[4,3-a]pyridin-6-yl]-9H-purin-6-amine] | >10 | 16
